Assay results from ChEMBL document CHEMBL4602605, “Fluoroquinolones structural and medicinal developments (2013-2018): Where are we now?” (Bioorg Med Chem, 2019).
Values after ≈ are worked out from the molar mass of the structure shown.

Test system: Mycobacterium tuberculosis
Test: Antimicrobial activity against rifampin and isoniazid resistant Mycobacterium tuberculosis Beijing harboring rpoB Ser 531-Leu 315 and katC Ser-Thr mutant incubated for 10 days by microbroth dilution method
Type: functional

For `CCn1cc(C(=O)O)c(=O)c2cc(F)c(-c3cc4cc(C(C)(C)C)cc(C(C)(C)C)c4oc3=O)cc21`, which MIC is on record?
The MIC was 3.1 µg/mL (≈ 6.31 µM).

`CCn1cc(C(=O)O)c(=O)c2cc(F)c(-c3cc4cc(Br)ccc4oc3=O)cc21` was tested. Which MIC did it give?
The MIC was 6.2 µg/mL (≈ 13.5 µM).

For `CCOc1cccc2cc(-c3cc4c(cc3F)c(=O)c(C(=O)O)cn4CC)c(=O)oc12`, which MIC is on record?
The MIC was 1.5 µg/mL (≈ 3.54 µM).
